Results taken from publication PMC9861830, “Hydroxylated Coumarin-Based Thiosemicarbazones as Dual Antityrosinase and Antioxidant Agents” (International Journal of Molecular Sciences, 2023).

Key:
[1] = DPPH radical scavenging assay; conditions: for EC50: ethanol, absorbance at 517 nm, 30 min, mean ± SEM, three experiments
Description: The antioxidant activity of T1 and its hydroxylated derivatives T2–6 was evaluated via DPPH assay, which is based on the ability of the stable DPP· radical species to be converted in its diamagnetic form (DPPH) by accepting an H· from the tested compound. […] From the evaluation of the relative decrease in absorbance at different concentrations of each tested compound, the antioxidant activities were evaluated by reporting their EC50 values, as shown in Table 1.
(§1) Radical scavenging activities were measured with DPPH and ABTS radical scavenging assays. […] In brief, for the DPPH antioxidant assay procedure, each test compound was dissolved in DMSO at 1.0 mM concentration and then diluted with absolute ethanol in the 500–2.0 µM concentration range. A solution of the DPPH radical (0.1 mM, absolute ethanol) was freshly prepared, stored in the dark, and used within a few hours. Each test solution (1500 µL) was vigorously mixed to an equal volume of DPPH inside a cuvette, and the molecular absorbance at 517 nm was recorded for 30 min. Each test was evaluated in three independent experiments. Ascorbic acid was used as the reference compound. For the ABTS method, based on the capacity of an antioxidant to scavenge the free ABTS^+ generated in the aqueous phase by reacting with a strong oxidizing, the free radical ABTS was produced by reacting 7 mM ABTS with 2.45 mM potassium persulfate in aqueous solution and kept in darkness at room temperature for 24 h before use. Samples of each compound (10 µL) were added to 990 µL of ABTS, and the reduction of the blue-green radical ABTS by hydrogen-donating antioxidants was evaluated by measuring the absorbance at 734 nm after 1 min incubation. The 6-hydroxy-2,5,7,8-tetramethylchromane-2-carboxylic acid (Trolox) was used as the antioxidant standard.

[2] = Potentiometric and spectrophotometric titrations (protonation constants, speciation); type: physicochemical; conditions: for Logβ / pK: 25 °C, NaCl 0.1 M; for species present at pH of the enzymatic inhibitory studies: pH 6.8
Description: Potentiometric titrations were performed in a thermostated vessel at 25 °C in 0.1 M ionic strength (NaCl) using a Mettler-Toledo Seven Compact pH/Ion-meter and equipped with a Mettler-Toledo InLab Micro Pro combined glass electrode with an integrated temperature probe. The glass electrode was calibrated daily and checked using the GLEE software package. UV–visible (UV–Vis) measurements were carried out with an Agilent Cary 60 spectrophotometer using a 0.1 cm quartz cuvette. Protonation constants of the studied molecules were determined via spectrophotometric and potentiometric titrations. Solutions of ligands were prepared daily by dissolving a suitable amount of the compound in DMSO (concentration ≈ 12 mM) prior to the required dilution in 0.1 M NaCl (final DMSO content 1% V/V, concentration ≈ 1.2∙10^−4 M). Four HCl equivalents for T1, five for T2–4, and six for T5–6 were added before titrating with an NaOH standard solution. Potentiometric and spectrophotometric data were simultaneously analysed using the Hyperquad 2006 software package. Speciation diagrams were obtained using Hyss 2009 program with the spectrophotometric data. The number of linearly independent absorbing species was found by applying the eigenvalue analysis to the absorbance data matrix.

mushroom tyrosinase = test: Tyrosinase inhibition assay (L-DOPA, dopachrome at 492 nm; Lineweaver–Burk plots); type: biochemical; conditions: for IC50: L-DOPA 0.5 mM, pH 6.8, 37 °C, mean ± SD, three experiments; for Ki: secondary plot of slope, read-out: Ki (inhibitor binding with free enzyme); for inhibition mode: Lineweaver–Burk plots, L-DOPA
Description: The inhibition of mushroom tyrosinase was evaluated as previously described with slight modifications. A mixture containing 50 mM phosphoric acid buffer solution (pH 6.8), a solution of mushroom tyrosinase (72 U/mL final concentration; Sigma Chemical Co., Milan, Italy), and DMSO with or without the sample were incubated at 37 °C for 10 min. Then, L-DOPA solution (0.5 mM final) was added, and the reaction was monitored following the molecular absorbance at 492 nm that resulted from the formation of the dopachrome product. Measurements were performed using a FLUOstar OPTIMA (BMG Labtech, Offenburg, Germany). […] The inhibition mode was analysed using the Lineweaver–Burk plots.

[3] = ABTS radical scavenging assay; conditions: absorbance at 734 nm after 1 min; mean ± SEM, three experiments
Description: as §1

[4] = Cell viability assay (MTT); type: cell-based, Murine; conditions: mouse, B16F10 melanoma cells, 100 μM, percentage of control
Description: (§2) The cellular cytotoxicity of compound T6 was investigated using a 3-(4,5-dimethylthiazol-2-yl)-2,5-diphenil-tetrazolium bromide (MTT) assay. Murine melanoma B16F10 cells were seeded in 96-well plates at a density of 5 × 10^3 cells/well and cultured in Dulbecco’s Modified Eagle Medium (DMEM) with 10% fetal bovine serum at 37 °C in a humidified atmosphere with 5% CO2. The B16F10 cell line was exposed for 48 h to compound T6 at concentrations ranging from 4 to 100 μM. After incubation, culture supernatants were removed and exchanged with a medium containing 0.5 mg/mL MTT. Then, after 3 h of incubation at 37 °C, the cells were lysed with 100 μL of DMSO. The absorbance was determined at 560 nm using a microplate reader (Multiskan FC-Thermo Scientific Inc. Waltham, MA, USA).

B16F10 cells = test: Cell viability assay (MTT); type: cell-based, Murine; conditions: 48 h
Description: as §2

[5] = L + H^+ ⇌ HL (first protonation)

Row | SMILES | EC50 [1] | melting point | Logβ ([2]; L + 2H^+ ⇌ H2L) | Logβ ([2]; L + 3H^+ ⇌ H3L) | Logβ ([2]; L + 4H^+ ⇌ H4L) | Logβ [2, 5] | pK [2, 5] | pK ([2]; step to H3L) | pK ([2]; step to H4L) | IC50 (mushroom tyrosinase) | EC50 [3] | pK ([2]; step to H2L) | other results
1 | C/C(=N\NC(N)=S)c1cc2cc(O)ccc2oc1=O [T2, (1E)-2-(1-(6-hydroxy-2-oxo-2H-chromen-3-yl)ethylidene)hydrazine-1-carbothioamide] | > 250 µM | 222 to 224 °C (dec.) | 17.24 (6) | 22.4 (1) | 26.7 (1) | 10.20 (8) | 10.2 | 5.4 | 4.3 | 14 ± 7 µM | 25.7 ± 0.4 µM |  | 
2 | O=C1O[C@H]([C@@H](O)CO)C(O)=C1O [Ascorbic Acid, Ascorbic acid, reference compound] | 18.6 ± 0.6 µM |  |  |  |  |  |  |  |  |  |  |  | 
3 | C/C(=N\NC(N)=S)c1cc2ccccc2oc1=O [T1, (1E)-2-(1-(2-oxo-2H-chromen-3-yl)ethylidene)hydrazine-1-carbothioamide] | > 250 µM |  | 13.47 (9) | 17.45 (8) |  | 8.46 (9) | 8.5 | 4.0 |  | 4 ± 2 µM | 72 ± 6 µM | 5.0 | species present in blood plasma ([2]; pH 7.4): neutral form (as HL); Ki (mushroom tyrosinase; L-DOPA substrate): 0.85 µM; inhibition mode (mushroom tyrosinase): competitive inhibition
4 | C/C(=N\NC(N)=S)c1cc2ccc(O)c(O)c2oc1=O [T6, (1E)-2-(1-(7,8-dihydroxy-2-oxo-2H-chromen-3-yl)ethylidene)hydrazine-1-carbothioamide] | 17.9 ± 0.4 µM | 228 to 230 °C (dec.) | 19.3 (1) | 25.1 (1) | 29.5 (1) | 10.5 (2) | 10.5 | 5.8 | 4.4 | 4.1 ± 0.7 µM | 8.8 ± 0.4 µM | 8.8 | viability at 48 h, 100 µM [4]: > 90%; cytotoxic effect (in words) (B16F10 cells; 4 μM): no cytotoxic effect; cytotoxicity (in words) (B16F10 cells; 4–100 μM): not cytotoxic; species present at pH of the enzymatic inhibitory studies [2]: monoanionic form, H2L^-; Kis (inhibitor binding with enzyme–substrate complex) (mushroom tyrosinase; L-DOPA substrate, secondary plot of 1/Vmax): 10.65 µM; Ki (mushroom tyrosinase; L-DOPA substrate): 5.88 µM; inhibition mode (mushroom tyrosinase): mixed-type inhibitor
5 | C/C(=N\NC(N)=S)c1cc2cc(O)c(O)cc2oc1=O [T5, (1E)-2-(1-(6,7-dihydroxy-2-oxo-2H-chromen-3-yl)ethylidene)hydrazine-1-carbothioamide] | 7.1 ± 0.3 µM | 228 to 230 °C (dec.) | 18.46 (9) | 24.76 (7) | 29.50 (6) | 10.7 (1) | 10.7 | 6.3 | 4.7 | 6 ± 2 µM | 9 ± 1 µM | 7.8 | species present at pH of the enzymatic inhibitory studies [2]: monoanionic form, H2L^-
6 | C/C(=N\NC(N)=S)c1cc2cccc(O)c2oc1=O [T4, (1E)-2-(1-(8-hydroxy-2-oxo-2H-chromen-3-yl)ethylidene)hydrazine-1-carbothioamide] | 28 ± 2 µM | 208 to 210 °C (dec.) | 17.26 (1) | 22.94 (5) | 26.5 (2) | 10.4 (1) | 10.4 | 5.7 | 3.6 | 5.7 ± 0.8 µM | 21.8 ± 0.8 µM | 6.9 | radical scavenging / antioxidant activity in DPPH assay (in words) ([1]; in comparison with ascorbic acid): modest antioxidant activity
7 | Cc1c(C)c2c(c(C)c1O)CCC(C)(C(=O)O)O2 (stereo not drawn) [Trolox, 6-hydroxy-2,5,7,8-tetramethylchromane-2-carboxylic acid, reference compound] |  |  |  |  |  |  |  |  |  |  | 13 ± 1 µM |  | 
8 | C/C(=N\NC(N)=S)c1cc2ccc(O)cc2oc1=O [T3, (1E)-2-(1-(7-hydroxy-2-oxo-2H-chromen-3-yl)ethylidene)hydrazine-1-carbothioamide] | > 250 µM |  | 17.6 (1) | 23.26 (7) | 26.7 (1) | 10.5 (1) | 10.5 | 5.7 | 3.4 | 5 ± 2 µM | 36 ± 1 µM | 7.1 | 
